The source of these data is patent US9040691B2, “Hydroxymethylaryl-substituted pyrrolotriazines as ALK1 inhibitors” (BAYER INTELLECTUAL PROPERTY GMBH, priority 2011, dated 2015).

A value given as a limit tells only on which side of the number the result lay.

Assay [1] concerns the target T1, ALK1 kinase (Homo sapiens (Human), UniProt P37023). Nature of the assay: ALK1 kinase assay (ProQinase protocol). The assay is classed as biochemical. The note with it: ProQinase radiometric assay, casein, γ-33P-ATP. As for the experimental part: B-1b. ALK1 Kinase Assay (ProQinase Protocol)
ALK1 (Invitrogen, Carlsbad, Calif., USA) kinase activity was measured at ProQinase GmbH (Freiburg, Germany) in a radiometric assay using γ-^33P-ATP and casein (Sigma, St. Louis, Mo., USA) as substrate in 96-well PerkinElmer FlashPlates™ (Boston, Mass., USA). The compounds were tested at 10 concentrations in the range of 1×10^−4 M to 3×10^−9 M in a total volume of 50 μl with a final DMSO concentration of 1% each. The assay components were mixed in the order: • 20 μl assay buffer (70 mM HEPES-NaOH, pH 7.5, 3 mM MgCl2, 3 mM MnCl2, 2 μM sodium orthovanadate, 1.2 mM DTT); • 5 μl γ-^33P-ATP (1.0 μM in water, approx. 6×10^5 cpm per well); • 5 μl test compound solution (in 10% DMSO); • […] (200 μg/ml, 1.0 μg/50 μl final concentration)/enzyme (4 μg/ml, 20 ng/50 μl=5.5 nM final concentration) solution (1:1 mixture).
The reaction mixtures were incubated at 30° C. for 60 minutes and stopped by adding 50 μl 2% (v/v) phosphoric acid. The plates were aspirated and washed twice with 200 μl 0.9% (w/v) sodium chloride. Incorporation of ^33Pi was determined with a microplate scintillation counter (Microbeta, Wallac). All assays were performed using a BecicmanCoulter/SAGIAN™ Core System.
Median values obtained from unspecific substrate binding of labelled. ATP were set as background level, while median values measured in the absence of any inhibitor were considered to reflect full activity of ALK1 kinase. The background activity (ba) was subtracted from the full activity (fa) value as well as from the values obtained from the test compound containing samples (test compound activity, tea). The residual activity in the latter was calculated as follows: residual activity (%)=100×[(tca−ba)/(fa−ba)]
The residual activities for each concentration and the compound IC50 values were calculated using Quattro Workflow V3.1.0 (Quattro Research GmbH, Munich, Germany). The fitting model for the IC50 determinations was “Sigmoidal response (variable slope)” with parameters “top” fixed at 100% and “bottom” at 0%. The fitting method used was a least-squares fit.

For assay [2], the system named is hSmad7 mRNA in BMP9-stimulated HUVEC. Description: Smad7 target gene induction: HUVEC cell assay and TaqMan expression analysis. The assay is classed as cell-based, human. The note with it: Homo sapiens, 3 h, 1 ng/ml BMP9 for 3 h, Smad7 mRNA by TaqMan. On the procedure: B-2b. Smad7 Target Gene Induction: HUVEC Cell Assay and TaqMan Expression Analysis
The in vitro potency of ALK1 inhibitors was tested in a cell-based assay. Bone morphogenetic protein 9 (BMP9) induces Smad7 mRNA expression in human vascular endothelial cells (HUVEC) via activation of ALK1.
1.5×10^4 passage 2 HUVECs (Lonza, Basel, Switzerland) per well were seeded in a 96-well plate in EBM-2 medium containing EGM-2 additives and growth factors (Lonza, CC-3156 and CC-4176). After 4 h, the medium was changed to EBM-2 with 0.2% fetal calf serum (FCS) and the cells were starved for 20 h in a humidified incubator at 37° C., 5% CO2. Test compounds were added at 11 different concentrations between 0 and 10 000 nM one hour prior to stimulation of the cells for 3 h with recombinant human BMP9 protein at 1 ng/ml (dissolved in 4 mM hydrochloric acid, 0.1% BSA at 10 μg/ml; R&D Systems, Minneapolis, Minn., USA, 3209BP). Medium was removed, and the cells were lysed in 100 μl RLT buffer (Qiagen, Hilden, Germany). RNA was isolated using the Qiagen RNeasy 96 Kit (order-No. 74182) according to manufacturer's instructions and eluted from the columns with 65 μl RNAse-free water. Reverse transcription for quantitative RT-PCR was carried out with the Omniscript Kit (Qiagen, 205113) in RNAse-free 96-well round-bottom plates. Per well, 6.8 μl of a reaction master mix containing 2 μl 10×RT-buffer, 2 μl dNTPs (5 mM each), 1.6 μl random primer N6 (125 μM), 0.25 μl Rnase Out (40 U/μl) and 1 μl Omniscript Reverse Transcriptase were added. After addition of 13.2 μl of the RNA/water mixture, plate contents were mixed, incubated for 1 h at 37° C. and the total volume adjusted to 100 μl in each well by addition of 80 μl RNAse-free water.
The quantification of human Smad7 mRNA was carried out on a TaqMan using the Eurogentec qPCR Mastermix Plus (RT-QP2X-03-075+; Cologne, Germany) and employing human L32 as housekeeping reference mRNA. Per qPCR reaction, 2.8 μl primer mix, 10 μl master mix, 2.2 μl water and 5 μl cDNA were added. Thermal cycling parameters were 2 min at 50° C., followed by 10 min at 95° C., followed by 40 cycles of melting at 95° C. for 15 sec and annealing/extending at 60° C. for 1 min.
Smad7 mRNA levels induced by 1 ng/ml BMP9 without the addition of any inhibitor were set at 100% induction, and % inhibition was calculated for each test compound with this value. For each test compound, every value was determined in quadruplicate. The IC50 values were determined using Microsoft Excel. The fitting method used was a weighted, unconstrained ML-fit.

In assay [3] the target is T1, ALK1 kinase. Nature of the assay: In vitro enzyme inhibition using scintillation of incorporated radio label (flashplate assay). The assay is classed as biochemical. The note with it: biotinylated α-casein, 33P-ATP, 500 nM ATP. As for the experimental part: B-1a. In Vitro Enzyme Inhibition Using Scintillation of Incorporated Radio Label (Flashplate Assay)
Test compounds diluted in DMSO are mixed with a suitable substrate/co-substrate (here: biotinylated α-casein and ^33P-ATP) in a corresponding assay buffer. Addition of the enzyme of interest (here: ALK1 kinase) starts the enzyme reaction. The enzyme-catalyzed incorporation of radio label into the substrate is measured via scintillation. Incorporated radio label is separated from free radio label via specific binding of the biotinylated substrate to strepavidin-coated microtiter plates (flashplates) and concomitant washing steps. The scintillation signal intensity (counts per minutes, cpm) is proportional to the enzyme activity. Enzyme inhibition results in a decreased signal intensity. IC50 values of the test compounds are determined by cpm-versus-[I] plots.
Reaction buffer contains 50 mM Tris pH 8.0 (Sigma), 1 mM MnCl2 (Sigma), 0.01% Nonidet P40 (Fluka), 0.5× Complete EDTA-free protease inhibitors (Roche; contains a mixture of several protease inhibitors for the inhibition of serine and cysteine (but not metallo-) proteases; 1 tablet contains protease inhibitors sufficient for a 50 ml cell extract; the concentration used in this assay corresponds to 1 tablet in 100 ml).
• 1.) Stop solution: Dulbecco's PBS (PAA, Pasching, Austria), 25 mM EDTA (Sigma), 25 μM ATP (Roche), 0.05% Triton X-100 (Sigma); • 2.) Saturation buffer: Dulbecco's PBS (PAA, Pasching, Austria), 100 μM ATP (Roche), 0.2% Triton X-100 (Sigma); • 3.) Wash buffer: Dulbecco's PBS (PAA, Pasching, Austria). Enzyme Solution:
ALK1 (Invitrogen, Paisley, United Kingdom) stock solution (35.7 ng/μl) is diluted to 4 ng/μl; final concentration in the reaction is 1 ng/μl.
Dephosphorylated α-casein (Sigma) is biotinylated according to the manufacturer's protocol (Pierce, Bonn, Germany) resulting in a stock solution of 61.6 μM. Briefly, EZ-Link® Biotin reagent (sulfosuccinimidyl-6-(biotinamido)hexanoate; Pierce, Bonn, Germany) is added in equal molarity to α-casein and incubated on ice for 2 h. Afterwards, the biotin reagent is removed by dialysis (2×2 h and overnight).
A 100 mM solution of cold (unlabelled) ATP (Roche) is diluted 1:100 before each test. For the substrate mix, α-casein is diluted to 2.22 μM resulting in a final concentration of 1 μM α-casein in the reaction. Additionally, cold ATP is added to give a 1.11 μM solution which results in a final concentration of 500 nM in the reaction.
Radioactive ATP Solution:
The stock solution (9.25 MBq/25 μl of ^33P-ATP; Perkin Elmer, Rodgau, Germany) is diluted to 651.2 Bq/μl.
Compounds are dissolved in 100% DMSO (10 mM stock solution) and diluted to 2 mM. Further dilutions are made stepwise 1:3.16 in DMSO.
A volume of 9 μl substrate solution is provided into each well of a 384 well microliter plate (Greiner Bio-One, Solingen, Germany), 1 μl compound solution and 5 μl of the radioactive ATP solution are added. Enzyme reaction starts with addition of 5 μl of enzyme solution. The mixture is incubated for 60 minutes at room temperature and then stopped by addition of 10 μl stop solution. The 384 well microliter flashplates (Perkin Elmer, Rodgau, Germany) are saturated with 50 μl saturation buffer per well for at least 60 minutes. Subsequently, a volume of 20 μl is discarded and replaced with 20 μl of the stopped ALK1 reaction mixture. Binding of biotinylated substrate to the flashplate is allowed for by overnight incubation at room temperature. Bound substrate is separated from unbound components through repeated washing steps (3×50 μl washing buffer per well). Finally, 50 μl washing buffer is added, and the scintillation signal (cpm) is measured in a suitable counter (Perkin Elmer, Rodgau, Germany).

T1 sequence (P37023 22-503): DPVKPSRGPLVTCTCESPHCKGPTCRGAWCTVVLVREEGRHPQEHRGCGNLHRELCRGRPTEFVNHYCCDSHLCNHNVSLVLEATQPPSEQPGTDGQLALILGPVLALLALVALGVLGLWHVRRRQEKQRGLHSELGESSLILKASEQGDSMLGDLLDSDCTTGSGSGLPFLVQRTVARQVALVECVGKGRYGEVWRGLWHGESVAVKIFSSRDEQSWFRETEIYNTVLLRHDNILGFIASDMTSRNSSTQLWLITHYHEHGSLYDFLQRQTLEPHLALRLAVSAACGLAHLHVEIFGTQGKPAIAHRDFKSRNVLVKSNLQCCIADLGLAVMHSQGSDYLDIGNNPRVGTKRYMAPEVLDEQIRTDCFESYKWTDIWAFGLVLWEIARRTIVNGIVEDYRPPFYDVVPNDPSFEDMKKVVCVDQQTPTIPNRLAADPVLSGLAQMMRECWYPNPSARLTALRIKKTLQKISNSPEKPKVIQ

Regarding `CCc1cc(-c2cc(C3CCNC3)n3ncnc(N)c23)cc(F)c1CO` (racemic) [Example 37, rac-{4-[4-Amino-7-(pyrrolidin-3-yl)pyrrolo[2,1-f][1,2,4]triazin-5-yl]-2-ethyl-6-fluorophenyl}-methanol], the figures for the half-maximal inhibitory concentration (IC50) (against ALK1 kinase [1]; in assay [2]) were below 3 nM and 330 nM, respectively.
In the case of `CCc1cc(-c2cc(C3CCCNC3)n3ncnc(N)c23)cc(F)c1CO` (racemic) [Example 38, rac-{4-[4-Amino-7-(piperidin-3-yl)pyrrolo[2,1-f][1,2,4]triazin-5-yl]-2-ethyl-6-fluorophenyl}-methanol], half-maximal inhibition on ALK1 kinase [1] (IC50) required 4 nM.
`CCc1cc(-c2cc(C(O)C3CC3)n3ncnc(N)c23)cc(F)c1CO` (racemic) [Example 39, rac-{4-Amino-5-[3-ethyl-5-fluoro-4-(hydroxymethyl)phenyl]pyrrolo[2,1-f][1,2,4]triazin-7-yl}-(cyclopropyl)methanol]: the IC50 at ALK1 kinase [1] turned out to be 5.7 nM; in assay [2] it was 500 nM.
Regarding `CCc1cc(-c2cc([C@H]3CC[C@H](O)CC3)n3ncnc(N)c23)cc(F)c1CO` [Example 28, trans-4-{4-Amino-5-[3-ethyl-5-fluoro-4-(hydroxymethyl)phenyl]pyrrolo[2,1-f][1,2,4]triazin-7-yl}-cyclohexanol], the IC50 amounted to 170 nM on ALK1 kinase [3] and 124 nM against ALK1 kinase [1].

The term IC50 denotes the midpoint of a concentration-inhibition curve.
